Source: patent publication US8993566B2, “Quinoline compound composing 1,2,4-triazine-dione and use thereof” (Wuhan Shengyun Biopharma Co., Ltd., priority 2012, dated 2015)

Legend:
[1] = biological target: T1, c-Met kinase (His-tagged recombinant human Met (amino acids 974-end)) (Homo sapiens, UniProt P08581); assay: c-Met Enzyme Activity Inhibition Assay (ELISA); type: biochemical; conditions: 50 pM c-Met, 5 μM ATP, room temperature 20 min
T1 construct: His-tagged recombinant human Met (amino acids 974-end); His
T1 sequence (P08581 956-1390): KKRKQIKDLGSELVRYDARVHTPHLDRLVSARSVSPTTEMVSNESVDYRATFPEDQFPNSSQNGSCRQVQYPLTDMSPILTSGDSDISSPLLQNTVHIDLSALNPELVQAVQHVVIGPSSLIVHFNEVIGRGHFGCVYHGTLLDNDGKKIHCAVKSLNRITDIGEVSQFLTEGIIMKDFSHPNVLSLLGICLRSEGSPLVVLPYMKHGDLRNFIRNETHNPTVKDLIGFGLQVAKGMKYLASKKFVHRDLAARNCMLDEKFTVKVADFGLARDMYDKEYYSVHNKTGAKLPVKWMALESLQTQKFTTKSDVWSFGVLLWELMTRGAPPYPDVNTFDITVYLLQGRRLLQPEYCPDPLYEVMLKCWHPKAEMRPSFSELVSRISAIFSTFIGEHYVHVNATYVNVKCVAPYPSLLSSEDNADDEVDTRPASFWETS
Description: c-Met Enzyme Activity Inhibition Assay
The assay for the determination of c-Met kinase activity is based on an enzyme linked immunosorbant assay (ELISA). A compound of Formula I, 50 pM c-Met (His-tagged recombinant human Met (amino acids 974-end), expressed by baculovirus), and 5 μM ATP in an assay buffer (25 mM MOPS, pH 7.4, 5 mM MgCl2, […], 100 μM sodium orthovanadate, 0.01% Triton X-100, 1 mM DTT, final DMSO concentration 1% (v/v)) were incubated on a plate coated with 0.25 mg/mL POT at room temperature for 20 min. The reaction mixture was removed by washing and the phosphorylated polymer substrate was detected with 0.2 μg/mL phosphotyrosine specific monoclonal antibody (PY20) conjugated to horseradish peroxidase (HRP). After the addition of 1M phosphoric acid to stop the development, the chromogenic substrate (TMB) color was quantitated by spectrophotometry at 450 nm.

[2] = tested on: human hepatoma carcinoma cell line SMMC-7721; assay: In vitro anti-tumor cell activity (MTT), SMMC-7721; type: cell-based; conditions: SMMC-7721 cells, MTT, 72 h, Bliss method
Description: (§1) The digested cell solution was poured into a centrifuge tube, to which a culture media was added to stop the digestion. The centrifuge tube was centrifuged at 800 r/min for 10 min, the supernatant was removed gently and then 5 mL of the culture media was added. The cells were pipetted and mixed homogeneously. 10 μL cell suspension was taken into a cell counting plate for counting, wherein the cell concentration was adjusted to 10^4 cells/well. To each well of a 96-well plate, except for A1 well as blank control, was added 100 μL of the cell suspension. The 96-well plate was placed in an incubator and cultivated for 24 h. […] The 96-well plate was placed in an incubator and cultivated for 72 h. (3) The culture media containing the compounds in the 96-well plate was removed, and the cells were washed with phosphate buffered solution (PBS) twice. To each well was added 100 μL MTT (tetrazole) (0.5 mg/mL), after placing the plate in an incubator to incubate for 4 h, the MTT solution was removed and 100 μL dimethyl sulfoxide was added. The reaction product of survival cells with MTT, i.e. formazan, was dissolved completely by oscillation on a magnetic oscillator, and then placed into a microplate reader to measure the results, and the IC50 values of compounds could be deduced by Bliss method.

[3] = tested on: human gastric cancer cell MKN-45; assay: In vitro anti-tumor cell activity (MTT), MKN-45; type: cell-based; conditions: MKN-45 cells, MTT, 72 h, Bliss method
Description: as §1

[4] = tested on: human nonsmall-cell lung cancer cell H460; assay: In vitro anti-tumor cell activity (MTT), H460; type: cell-based; conditions: H460 cells, MTT, 72 h, Bliss method
Description: as §1

[5] = tested on: human colon cancer cell HT-29; assay: In vitro anti-tumor cell activity (MTT), HT-29; type: cell-based; conditions: HT-29 cells, MTT, 72 h, Bliss method
Description: as §1

Row | Compound | IC50 for inhibiting c-Met kinase [1] [µg/mL] | SMMC-7721 IC50 [2] [µg/mL] | MKN-45 IC50 [3] [µg/mL] | H460 IC50 [4] [µg/mL] | HT-29 IC50 [5] [µg/mL]
1 | C=CCn1c(=O)c(C(=O)Nc2ccc(Oc3ccnc4cc(OCCCN5CCCC5)c(OC)cc34)c(F)c2)nn(-c2ccc(Cl)cc2)c1=O [Example 38] | 2.76 | 1.8 | 0.62 | 1.4 | 0.54
2 | N-[3-fluoro-4-[7-methoxy-6-[3-(4-methyl-1-piperidinyl)propyloxy]quinolin-4-oxy]phenyl]-2-phenyl-4-butyl-3,5-dioxo-2,3,4,5-tetrahydro-1,2,4-triazine-6-carboxamide [Example 28] | 0.31 | 0.44 | 0.077 | 0.25 | 0.31
3 | COc1cc2c(Oc3ccc(NC(=O)c4nn(-c5ccc(Br)cc5)c(=O)n(C)c4=O)cc3F)ccnc2cc1OCCCN1CCCCC1 [Example 7] | 0.048 | 0.21 | 0.033 | 0.13 | 0.27
4 | N-[3-fluoro-4-[6-methoxy-7-[3-(4-morpholinyl)propyloxy]quinolin]-4-oxy]phenyl]-2-(2,4-dichlorophenyl)-4-benzyl-3,5-dicarbonyl-2,3,4,5-tetrahydro-1,2,4-triazine-6-carboxamide [Example 43] | – | 1.4 | 0.07 | 0.65 | 0.32
5 | N-[3-fluoro-4-[6-methoxy-7-[3-(1-piperidinyl)propyloxy]quinolin-4-oxy]phenyl]-2-(4-methylphenyl)-4-methyl-3,5-dicarbonyl-2,3,4,5-tetrahydro-1,2,4-triazine-6-carboxamide [Example 12] | 0.18 | 0.74 | – | 0.12 | 0.11
6 | COc1cc2c(Oc3ccc(NC(=O)c4nn(-c5ccc(C)cc5)c(=O)n(C)c4=O)cc3F)ccnc2cc1OCCCN1CCN(C)CC1 [Example 15, N-[3-fluoro-4-[6-methoxy-7-[3-(4-methyl-1-piperazinyl)propyloxy]quinolin-4-oxy]phenyl]-2-(4-methylphenyl)-4-methyl-3,5-dicarbonyl-2,3,4,5-tetrahydro-1,2,4-triazine-6-carboxamide;] | 0.009 | 0.79 | – | 0.18 | 0.5
7 | N-[3-fluoro-4-[6-methoxy-7-[3-(4-morpholinyl)propyloxy]quinolin-4-oxy]phenyl]-2-(4-methylphenyl)-4-methyl-3,5-dicarbonyl-2,3,4,5-tetrahydro-1,2,4-triazine-6-carboxamide [Example 13] | 0.25 | 0.67 | – | 0.28 | 0.19
8 | N-[3-fluoro-4-[6-methoxy-7-[3-(1-piperidinyl)propyloxy]quinolin]-4-oxy]phenyl]-2-phenyl-4-benzyl-3,5-dicarbonyl-2,3,4,5-tetrahydro-1,2,4-triazine-6-carboxamide [Example 46] | – | 1.4 | 0.1 | 0.8 | 0.3
